Patent publication US9447048B2, “Processes for the preparation of pesticidal compounds” (Dow AgroSciences LLC, priority 2013, dated 2016)

Experiments:
[1] = tested on: Green Peach Aphid (Myzus persicae) (MYZUPE); assay: Bioassay on Green Peach Aphid (GPA), foliar spray on cabbage seedlings; format: in vivo; details: 200 ppm spray on cabbage leaves, graded after three days, live aphids, Abbott's correction
Description: Several molecules disclosed herein were tested against GPA using procedures described below.
Cabbage seedling grown in 3-in pots, with 2-3 small (3-5 cm) true leaves, were used as test substrate. The seedlings were infested with […] (wingless adult and nymph stages) one day prior to chemical application. Four pots with individual seedlings were used for each treatment. Test compounds (2 mg) were dissolved in 2 mL of acetone/MeOH (1:1) solvent, forming stock solutions of 1000 ppm test compound. The stock solutions were diluted 5× with 0.025% Tween 20 in water to obtain the solution at 200 ppm test compound. A hand-held aspirator-type sprayer was used for spraying a solution to both sides of the cabbage leaves until runoff. Reference plants (solvent check) were sprayed with the diluent only containing 20% by volume acetone/MeOH (1:1) solvent. Treated plants were held in a holding room for three days at approximately 25° C. and ambient relative humidity (RH) prior to grading. Evaluation was conducted by counting the number of live aphids per plant under a microscope. Percent Control was measured by using Abbott's correction formula (W. S. Abbott, “A Method of Computing the Effectiveness of an Insecticide” J. Econ. Entomol 18 (1925), pp. 265-267) as follows. Corrected % Control=100*(X−Y)/X • where • X=No. of live aphids on solvent check plants and • Y=No. of live aphids on treated plants
The results are indicated in the table entitled “Table 1: GPA (MYZUPE) and sweetpotato whitefly-crawler (BEMITA) Rating Table”.

[2] = tested on: Sweetpotato Whitefly Crawler (Bemisia tabaci) (BEMITA); assay: Bioassay on Sweetpotato Whitefly Crawler, foliar spray on cotton plants; format: in vivo; details: 200 ppm spray on cotton leaf, graded after 8-9 days, live nymphs, Abbott's correction
Description: Cotton plants grown in 3-inch pots, with 1 small (3-5 cm) true leaf, were used at test substrate. The plants were placed in a room with whitely adults. Adults were allowed to deposit eggs for 2-3 days. After a 2-3 day egg-laying period, plants were taken from the adult whitefly room. Adults were blown off leaves using a hand-held Devilbliss sprayer (23 psi). Plants with egg infestation (100-300 eggs per plant) were placed in a holding room for 5-6 days at 82° F. and 50% RH for egg hatch and crawler stage to develop. Four cotton plants were used for each treatment. Compounds (2 mg) were dissolved in 1 mL of acetone solvent, forming stock solutions of 2000 ppm. The stock solutions were diluted 10× with 0.025% Tween 20 in water to obtain a test solution at 200 ppm. A hand-held Devilbliss sprayer was used for spraying a solution to both sides of cotton leaf until runoff. Reference plants (solvent check) were sprayed with the diluent only. Treated plants were held in a holding room for 8-9 days at approximately 82° F. and 50% RH prior to grading. Evaluation was conducted by counting the number of live nymphs per plant under a microscope.

| SMILES | MYZUPE rating (% Control of Mortality) [1] | BEMITA rating (% Control of Mortality) [2] |
| --- | --- | --- |
| O=C(CCSCCC(F)(F)F)Nc1cn(-c2cccnc2)nc1Cl [Compound 5.3, N-(3-chloro-1-(pyridin-3-yl)-1H-pyrazol-4-yl)-3-((3,3,3-trifluoropropyl)thio)propanamide] | A (80-100) | B (More than 0-Less than 80) |
| Cl.Nc1c[nH]nc1Cl [Compound 1a, 3-chloro-1H-pyrazol-4-amine Hydrochloride] | B (More than 0-Less than 80) | B (More than 0-Less than 80) |
| CCN(C(=O)CCSCCC(F)(F)F)c1cn(-c2cccnc2)nc1Cl [Compound 6.3, N-(3-chloro-1-(pyridin-3-yl)-1H-pyrazol-4-yl)-N-ethyl-3-((3,3,3-trifluoropropyl)thio)propanamide] | A (80-100) | A (80-100) |
| O=C(CCSCCC(F)(F)F)Nc1c[nH]nc1Cl [Compound 2.3, N-(3-chloro-1H-pyraxol-4-yl)-3-((3,3,3,trifluoropropyl)thio)propanamide] | B (More than 0-Less than 80) | B (More than 0-Less than 80) |
| CCN(C(=O)CC[S+]([O-])CCC(F)(F)F)c1cn(-c2cccnc2)nc1Cl (stereo not shown) [Compound 7.3, N-(3-chloro-1-(pyridin-3-yl)-1H-pyrazol-4-yl)-N-ethyl-3-((3,3,3-trifluoropropyl)sulfoxo)propanamide] | A (80-100) | A (80-100) |
